What follows are molecules tested on test plant species (assay: Post-emergent herbicidal activity test (greenhouse, foliar spray, visual growth reduction)). Settings: post-emergence, 336 h, ECHCG: barnyardgrass (Echinochloa crus-galli), 140 g ai/ha, 14 days after application, read-out: Visual Growth Reduction (%) 14 Days After Application, ECHCG.
Assay type: in vivo
Procedure, shortened: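 Seedlings were raised 7-21 d in a greenhouse under a 15 h photoperiod until the first or second true leaf. Each compound, dissolved in acetone:DMSO 97:3 and diluted into a surfactant-containing spray mixture, was then applied at 187 L/ha. Plants were subirrigated, and growth reduction was scored visually at 14 d.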
COC(=O)c1nc(-c2cccc(F)c2OC)c(F)cc1Cl [F264, Methyl 3-chloro-5-fluoro-6-(3-fluoro-2-methoxyphenyl) picolinate] showed a pest or weed control at 140 g/ha of 0 to 29%.
COC(=O)c1nc(-c2cc(F)c(C(F)(F)F)cc2Cl)ccc1Cl [F243, Methyl 3-chloro-6-(2-chloro-5-fluoro-4-(trifluoromethyl)phenyl)picolinate] showed a pest or weed control at 140 g/ha of 95 to 100%.
COC(=O)c1nc(-c2cccc3c2OC(F)(F)O3)c(F)cc1Cl [F256, Methyl 3-chloro-6-(2,2-difluorobenzo[d][1,3]dioxol-4-yl)-5-fluoropicolinate] showed a pest or weed control at 140 g/ha of 0 to 29%.

Same assay, conditions: post-emergence, 336 h, IPOHE: ivy-leaf morning glory (Ipomoea hederacea), 140 g ai/ha, 14 days after application, read-out: Visual Growth Reduction (%) 14 Days After Application, IPOHE
Molecule COC(=O)c1nc(-c2cccc(F)c2OC)c(F)cc1Cl [F264, Methyl 3-chloro-5-fluoro-6-(3-fluoro-2-methoxyphenyl) picolinate] has a pest or weed control at 140 g/ha of 95 to 100%.
For COC(=O)c1nc(-c2cc(F)c(C(F)(F)F)cc2Cl)ccc1Cl [F243, Methyl 3-chloro-6-(2-chloro-5-fluoro-4-(trifluoromethyl)phenyl)picolinate], the pest or weed control at 140 g/ha was 95 to 100%.
Work on COC(=O)c1nc(-c2cccc3c2OC(F)(F)O3)c(F)cc1Cl [F256, Methyl 3-chloro-6-(2,2-difluorobenzo[d][1,3]dioxol-4-yl)-5-fluoropicolinate] yielded a pest or weed control at 140 g/ha of 0 to 29%.

Same assay, conditions: post-emergence, 336 h, KCHSC: kochia (Bassia scoparia), 140 g ai/ha, 14 days after application, read-out: Visual Growth Reduction (%) 14 Days After Application, KCHSC
For COC(=O)c1nc(-c2cccc(F)c2OC)c(F)cc1Cl [F264, Methyl 3-chloro-5-fluoro-6-(3-fluoro-2-methoxyphenyl) picolinate], the pest or weed control at 140 g/ha was 0 to 29%.
Work on COC(=O)c1nc(-c2cc(F)c(C(F)(F)F)cc2Cl)ccc1Cl [F243, Methyl 3-chloro-6-(2-chloro-5-fluoro-4-(trifluoromethyl)phenyl)picolinate] yielded a pest or weed control at 140 g/ha of 75 to 84%.
Work on COC(=O)c1nc(-c2cccc3c2OC(F)(F)O3)c(F)cc1Cl [F256, Methyl 3-chloro-6-(2,2-difluorobenzo[d][1,3]dioxol-4-yl)-5-fluoropicolinate] yielded a pest or weed control at 140 g/ha of 0 to 29%.

Same assay, conditions: post-emergence, 336 h, ORYSA: rice (Oryza sativa), 140 g ai/ha, 14 days after application, read-out: Visual Growth Reduction (%) 14 Days After Application, ORYSA
For COC(=O)c1nc(-c2cccc(F)c2OC)c(F)cc1Cl [F264, Methyl 3-chloro-5-fluoro-6-(3-fluoro-2-methoxyphenyl) picolinate], the pest or weed control at 140 g/ha was 0 to 29%.
With COC(=O)c1nc(-c2cc(F)c(C(F)(F)F)cc2Cl)ccc1Cl [F243, Methyl 3-chloro-6-(2-chloro-5-fluoro-4-(trifluoromethyl)phenyl)picolinate] the pest or weed control at 140 g/ha was 0 to 29%.
Work on COC(=O)c1nc(-c2cccc3c2OC(F)(F)O3)c(F)cc1Cl [F256, Methyl 3-chloro-6-(2,2-difluorobenzo[d][1,3]dioxol-4-yl)-5-fluoropicolinate] yielded a pest or weed control at 140 g/ha of 0 to 29%.

Same assay, conditions: post-emergence, 336 h, SETFA: giant foxtail (Setaria faberi), 140 g ai/ha, 14 days after application, read-out: Visual Growth Reduction (%) 14 Days After Application, SETFA
COC(=O)c1nc(-c2cccc(F)c2OC)c(F)cc1Cl [F264, Methyl 3-chloro-5-fluoro-6-(3-fluoro-2-methoxyphenyl) picolinate] gave a pest or weed control at 140 g/ha of 0 to 29%.
For COC(=O)c1nc(-c2cc(F)c(C(F)(F)F)cc2Cl)ccc1Cl [F243, Methyl 3-chloro-6-(2-chloro-5-fluoro-4-(trifluoromethyl)phenyl)picolinate], the pest or weed control at 140 g/ha was 95 to 100%.
COC(=O)c1nc(-c2cccc3c2OC(F)(F)O3)c(F)cc1Cl [F256, Methyl 3-chloro-6-(2,2-difluorobenzo[d][1,3]dioxol-4-yl)-5-fluoropicolinate] was tested, and the pest or weed control at 140 g/ha was 0 to 29%.

Same assay, conditions: post-emergence, 336 h, SORVU: grain sorghum (Sorghum vulgare), 140 g ai/ha, 14 days after application, read-out: Visual Growth Reduction (%) 14 Days After Application, SORVU
COC(=O)c1nc(-c2cccc(F)c2OC)c(F)cc1Cl [F264, Methyl 3-chloro-5-fluoro-6-(3-fluoro-2-methoxyphenyl) picolinate] showed a pest or weed control at 140 g/ha of 0 to 29%.
COC(=O)c1nc(-c2cc(F)c(C(F)(F)F)cc2Cl)ccc1Cl [F243, Methyl 3-chloro-6-(2-chloro-5-fluoro-4-(trifluoromethyl)phenyl)picolinate] gave a pest or weed control at 140 g/ha of 95 to 100%.
COC(=O)c1nc(-c2cccc3c2OC(F)(F)O3)c(F)cc1Cl [F256, Methyl 3-chloro-6-(2,2-difluorobenzo[d][1,3]dioxol-4-yl)-5-fluoropicolinate] gave a pest or weed control at 140 g/ha of 0 to 29%.

Same assay, conditions: post-emergence, 336 h, STEME: common chickweed (Stellaria media), 140 g ai/ha, 14 days after application, read-out: Visual Growth Reduction (%) 14 Days After Application, STEME
Molecule COC(=O)c1nc(-c2cccc(F)c2OC)c(F)cc1Cl [F264, Methyl 3-chloro-5-fluoro-6-(3-fluoro-2-methoxyphenyl) picolinate] has a pest or weed control at 140 g/ha of 0 to 29%.
With COC(=O)c1nc(-c2cc(F)c(C(F)(F)F)cc2Cl)ccc1Cl [F243, Methyl 3-chloro-6-(2-chloro-5-fluoro-4-(trifluoromethyl)phenyl)picolinate] the pest or weed control at 140 g/ha was 0 to 29%.
Work on COC(=O)c1nc(-c2cccc3c2OC(F)(F)O3)c(F)cc1Cl [F256, Methyl 3-chloro-6-(2,2-difluorobenzo[d][1,3]dioxol-4-yl)-5-fluoropicolinate] yielded a pest or weed control at 140 g/ha of 0 to 29%.

Same assay, conditions: post-emergence, 336 h, TRZAS: wheat, spring (Triticum aestivum), 140 g ai/ha, 14 days after application, read-out: Visual Growth Reduction (%) 14 Days After Application, TRZAS
COC(=O)c1nc(-c2cccc(F)c2OC)c(F)cc1Cl [F264, Methyl 3-chloro-5-fluoro-6-(3-fluoro-2-methoxyphenyl) picolinate] gave a pest or weed control at 140 g/ha of 0 to 29%.
Work on COC(=O)c1nc(-c2cc(F)c(C(F)(F)F)cc2Cl)ccc1Cl [F243, Methyl 3-chloro-6-(2-chloro-5-fluoro-4-(trifluoromethyl)phenyl)picolinate] yielded a pest or weed control at 140 g/ha of 85 to 94%.
For COC(=O)c1nc(-c2cccc3c2OC(F)(F)O3)c(F)cc1Cl [F256, Methyl 3-chloro-6-(2,2-difluorobenzo[d][1,3]dioxol-4-yl)-5-fluoropicolinate], the pest or weed control at 140 g/ha was 0 to 29%.

Same assay, conditions: post-emergence, 336 h, blackgrass (Alopecurus myosuroides), 14 Days After Application, 140 g ai/ha, read-out: Visual Growth Reduction (%) ALOMY
Molecule COC(=O)c1nc(-c2cccc(F)c2OC)c(F)cc1Cl [F264, Methyl 3-chloro-5-fluoro-6-(3-fluoro-2-methoxyphenyl) picolinate] has a pest or weed control at 140 g/ha of 0 to 29%.
COC(=O)c1nc(-c2cc(F)c(C(F)(F)F)cc2Cl)ccc1Cl [F243, Methyl 3-chloro-6-(2-chloro-5-fluoro-4-(trifluoromethyl)phenyl)picolinate] gave a pest or weed control at 140 g/ha of 85 to 94%.
COC(=O)c1nc(-c2cccc3c2OC(F)(F)O3)c(F)cc1Cl [F256, Methyl 3-chloro-6-(2,2-difluorobenzo[d][1,3]dioxol-4-yl)-5-fluoropicolinate] was tested, and the pest or weed control at 140 g/ha was 0 to 29%.

Same assay, conditions: post-emergence, 336 h, canada thistle (Cirsium arvense), 14 Days After Application, 140 g ai/ha, read-out: Visual Growth Reduction (%) CIRAR
In the case of COC(=O)c1nc(-c2cccc(F)c2OC)c(F)cc1Cl [F264, Methyl 3-chloro-5-fluoro-6-(3-fluoro-2-methoxyphenyl) picolinate], the pest or weed control at 140 g/ha is reported as 30 to 44%.
Molecule COC(=O)c1nc(-c2cc(F)c(C(F)(F)F)cc2Cl)ccc1Cl [F243, Methyl 3-chloro-6-(2-chloro-5-fluoro-4-(trifluoromethyl)phenyl)picolinate] has a pest or weed control at 140 g/ha of 95 to 100%.
With COC(=O)c1nc(-c2cccc3c2OC(F)(F)O3)c(F)cc1Cl [F256, Methyl 3-chloro-6-(2,2-difluorobenzo[d][1,3]dioxol-4-yl)-5-fluoropicolinate] the pest or weed control at 140 g/ha was 0 to 29%.

Same assay, conditions: post-emergence, 336 h, crabgrass (Digitaria sanguinalis), 14 Days After Application, 140 g ai/ha, read-out: Visual Growth Reduction (%) DIGSA
Work on COC(=O)c1nc(-c2cccc(F)c2OC)c(F)cc1Cl [F264, Methyl 3-chloro-5-fluoro-6-(3-fluoro-2-methoxyphenyl) picolinate] yielded a pest or weed control at 140 g/ha of 0 to 29%.
In the case of COC(=O)c1nc(-c2cc(F)c(C(F)(F)F)cc2Cl)ccc1Cl [F243, Methyl 3-chloro-6-(2-chloro-5-fluoro-4-(trifluoromethyl)phenyl)picolinate], the pest or weed control at 140 g/ha is reported as 95 to 100%.
In the case of COC(=O)c1nc(-c2cccc3c2OC(F)(F)O3)c(F)cc1Cl [F256, Methyl 3-chloro-6-(2,2-difluorobenzo[d][1,3]dioxol-4-yl)-5-fluoropicolinate], the pest or weed control at 140 g/ha is reported as 0 to 29%.

Same assay, conditions: post-emergence, 336 h, lambsquarters (Chenopodium album), 14 Days After Application, 140 g ai/ha, read-out: Visual Growth Reduction (%) CHEAL
Work on COC(=O)c1nc(-c2cccc(F)c2OC)c(F)cc1Cl [F264, Methyl 3-chloro-5-fluoro-6-(3-fluoro-2-methoxyphenyl) picolinate] yielded a pest or weed control at 140 g/ha of 75 to 84%.
COC(=O)c1nc(-c2cc(F)c(C(F)(F)F)cc2Cl)ccc1Cl [F243, Methyl 3-chloro-6-(2-chloro-5-fluoro-4-(trifluoromethyl)phenyl)picolinate] showed a pest or weed control at 140 g/ha of 95 to 100%.
COC(=O)c1nc(-c2cccc3c2OC(F)(F)O3)c(F)cc1Cl [F256, Methyl 3-chloro-6-(2,2-difluorobenzo[d][1,3]dioxol-4-yl)-5-fluoropicolinate] gave a pest or weed control at 140 g/ha of 0 to 29%.

Same assay, conditions: post-emergence, 336 h, redroot pigweed (Amaranthus retroflexus), 14 Days After Application, 140 g ai/ha, read-out: Visual Growth Reduction (%) AMARE
COC(=O)c1nc(-c2cccc(F)c2OC)c(F)cc1Cl [F264, Methyl 3-chloro-5-fluoro-6-(3-fluoro-2-methoxyphenyl) picolinate] showed a pest or weed control at 140 g/ha of 0 to 29%.
COC(=O)c1nc(-c2cc(F)c(C(F)(F)F)cc2Cl)ccc1Cl [F243, Methyl 3-chloro-6-(2-chloro-5-fluoro-4-(trifluoromethyl)phenyl)picolinate] showed a pest or weed control at 140 g/ha of 95 to 100%.
COC(=O)c1nc(-c2cccc3c2OC(F)(F)O3)c(F)cc1Cl [F256, Methyl 3-chloro-6-(2,2-difluorobenzo[d][1,3]dioxol-4-yl)-5-fluoropicolinate] was tested, and the pest or weed control at 140 g/ha was 0 to 29%.

Same assay, conditions: post-emergence, 336 h, wild oat (Avena fatua), 14 Days After Application, 140 g ai/ha, read-out: Visual Growth Reduction (%) AVEFA
Molecule COC(=O)c1nc(-c2cccc(F)c2OC)c(F)cc1Cl [F264, Methyl 3-chloro-5-fluoro-6-(3-fluoro-2-methoxyphenyl) picolinate] has a pest or weed control at 140 g/ha of 0 to 29%.
In the case of COC(=O)c1nc(-c2cc(F)c(C(F)(F)F)cc2Cl)ccc1Cl [F243, Methyl 3-chloro-6-(2-chloro-5-fluoro-4-(trifluoromethyl)phenyl)picolinate], the pest or weed control at 140 g/ha is reported as 75 to 84%.
COC(=O)c1nc(-c2cccc3c2OC(F)(F)O3)c(F)cc1Cl [F256, Methyl 3-chloro-6-(2,2-difluorobenzo[d][1,3]dioxol-4-yl)-5-fluoropicolinate] was tested, and the pest or weed control at 140 g/ha was 0 to 29%.

Same assay, conditions: post-emergence, 336 h, yellow nutsedge (Cyperus esculentus), 14 Days After Application, 140 g ai/ha, read-out: Visual Growth Reduction (%) CYPES
In the case of COC(=O)c1nc(-c2cccc(F)c2OC)c(F)cc1Cl [F264, Methyl 3-chloro-5-fluoro-6-(3-fluoro-2-methoxyphenyl) picolinate], the pest or weed control at 140 g/ha is reported as 0 to 29%.
In the case of COC(=O)c1nc(-c2cc(F)c(C(F)(F)F)cc2Cl)ccc1Cl [F243, Methyl 3-chloro-6-(2-chloro-5-fluoro-4-(trifluoromethyl)phenyl)picolinate], the pest or weed control at 140 g/ha is reported as 85 to 94%.
For COC(=O)c1nc(-c2cccc3c2OC(F)(F)O3)c(F)cc1Cl [F256, Methyl 3-chloro-6-(2,2-difluorobenzo[d][1,3]dioxol-4-yl)-5-fluoropicolinate], the pest or weed control at 140 g/ha was 0 to 29%.
